Source: US9040524B2, “Antifungal 5,6-dihydro-4H-pyrrolo[1,2-a][1,4]-benzodiazepines and 6H-pyrrolo[1,2-a][1,4]benzodiazepines substituted with bicycle benzene derivatives” (JANSSEN PHARMACEUTICA NV, priority 2010, dated 2015)

Experiments:
Assay type in all cases: cell-based
Sporothrix schenkii = experiment: Antifungal activity in vitro, resazurin growth inhibition screen: Sporothrix schenkii; conditions: Sporothrix schenkii B62482
Experimental: (§1) The standard susceptibility screen was performed in 96-well plates (U-bottom, Greiner Bio-One). Serial dilutions (2-fold or 4-fold) of 20 mM compound stock solutions were made in 100% DMSO, followed by an intermediate dilution step in water. These serial dilutions (10 μl) were then spotted onto test-plates that could be stored in the dark at 4° C. for a maximum period of 2 weeks. An adequate broad dose-range was included with 64 μM as the highest in-test concentration. […] The different fungal species/isolates (Table 3a) were cryopreserved and 1/1000 diluted in medium just prior to use. A standard inoculum of 200 μl containing 10^3 colony-forming unit (cfu) was then added to each well. A positive control (100% growth=fungal culture without antifungal) and a negative control (0% growth=RPMI-MOPS medium) were included on each plate.

Trichophyton rubrum = experiment: Antifungal activity in vitro, resazurin growth inhibition screen: Trichophyton rubrum; conditions: Trichophyton rubrum B68183
Experimental: as §1

Candida parapsilosis = experiment: Antifungal activity in vitro, resazurin growth inhibition screen: Candida parapsilosis; conditions: Candida parapsilosis B66126
Experimental: as §1

Cryptococcus neoformans = experiment: Antifungal activity in vitro, resazurin growth inhibition screen: Cryptococcus neoformans; conditions: Cryptococcus neoformans B66663
Experimental: as §1

[1] = tested on: Trichophyton mentagrophytes; experiment: Antifungal activity in vitro, resazurin growth inhibition screen: Trichophyton mentagrophytes; conditions: Trichophyton mentagrophytes B70554
Experimental: as §1

Microsporum canis = experiment: Antifungal activity in vitro, resazurin growth inhibition screen: Microsporum canis; conditions: Microsporum canis B68128
Experimental: as §1

Aspergillus fumigatus = experiment: Antifungal activity in vitro, resazurin growth inhibition screen: Aspergillus fumigatus; conditions: Aspergillus fumigatus B42928
Experimental: as §1

Row | SMILES | Inf. A pIC50 (Sporothrix schenkii) | Inf. C pIC50 (Trichophyton rubrum) | Inf. D pIC50 (Candida parapsilosis) | Inf. F pIC50 (Cryptococcus neoformans) | Inf. G pIC50 [1] | Inf. B pIC50 (Microsporum canis) | Inf. E pIC50 (Aspergillus fumigatus) | IC50 (Sporothrix schenkii; read-out: Inf. A pIC50 (converted)) [µM] | IC50 (Trichophyton rubrum; read-out: Inf. C pIC50 (converted)) [µM] | IC50 (Candida parapsilosis; Lodderomyces parapsilosis, read-out: Inf. D pIC50 (converted)) [µM] | IC50 (Cryptococcus neoformans; read-out: Inf. F pIC50 (converted)) [µM] | IC50 ([1]; read-out: Inf. G pIC50 (converted)) [µM] | IC50 (Microsporum canis; read-out: Inf. B pIC50 (converted)) [µM] | IC50 (Aspergillus fumigatus; read-out: Inf. E pIC50 (converted)) [µM]
1 | Cl.Clc1cc(Cl)c2c(c1)-n1cccc1C(c1ccc3c(c1)CCC3)NC2 (stereo not shown) [Compound 19, 7,9-dichloro-4-(2,3-dihydro-1H-inden-5-yl)-5,6-dihydro-4H-pyrrolo[1,2-a][1,4]-benzodiazepine .HCl] | <4.19 | 6.00 | <4.19 | 5.70 | 5.63 | 5.40 | 4.96 | – | – | – | – | – | – | –
2 | Cl.Clc1cccc2c1CNC(c1ccc3c(c1)CCO3)c1cccn1-2 (stereo not shown) [Compound 26, 7-chloro-4-(2,3-dihydro-5-benzofuranyl)-5,6-dihydro-4H-pyrrolo[1,2-a][1,4]benzo-diazepine .HCl] | <4.19 | 6.25 | 4.25 | <4.19 | 5.70 | 6.00 | 4.85 | – | – | – | – | – | – | –
3 | Cl.Clc1cccc2c1CNC(c1ccc3c(c1)OCC3)c1cccn1-2 (stereo not shown) [Compound 27, 7-chloro-4-(2,3-dihydro-6-benzofuranyl)-5,6-dihydro-4H-pyrrolo[1,2-a][1,4]benzo-diazepine .HCl] | <4.19 | 6.32 | <4.19 | <4.19 | 4.96 | 5.15 | <4.19 | – | – | – | – | – | – | –
4 | Cl.Fc1cccc2c1CNC(c1ccc3c(c1)CCOC3)c1cccn1-2 (stereo not shown) [Compound 29, 4-(3,4-dihydro-1H-2-benzopyran-6-yl)-7-fluoro-5,6-dihydro-4H-pyrrolo[1,2-a]-[1,4]benzodiazepine .HCl] | <4.19 | 4.44 | <4.19 | <4.19 | <4.19 | <4.19 | <4.19 | – | – | – | – | – | – | –
5 | Cl.Clc1ccc2c(c1Cl)CNC(c1ccc3c(c1)CCO3)c1cccn1-2 (stereo not shown) [Compound 30, 7,8-dichloro-4-(2,3-dihydro-5-benzofuranyl)-5,6-dihydro-4H-pyrrolo[1,2-a][1,4]-benzodiazepine .HCl] | <4.19 | 5.22 | <4.19 | 5.22 | 5.00 | 6.00 | <4.19 | – | – | – | – | – | – | –
6 | Cl.Clc1cc(Cl)c2c(c1)-n1cccc1C(c1ccc3c(c1)CCO3)NC2 (stereo not shown) [Compound 31, 7,9-dichloro-4-(2,3-dihydro-5-benzofuranyl)-5,6-dihydro-4H-pyrrolo[1,2-a][1,4]-benzodiazepine .HCl] | <4.19 | 6.00 | <4.19 | <4.19 | 5.80 | 5.52 | <4.19 | – | – | – | – | – | – | –
7 | Cl.Clc1ccc(Cl)c2c1CNC(c1ccc3c(c1)CCO3)c1cccn1-2 (stereo not shown) [Compound 32, 7,10-dichloro-4-(2,3-dihydro-5-benzofuranyl)-5,6-dihydro-4H-pyrrolo[1,2-a][1,4]-benzodiazepine .HCl] | <4.19 | 5.22 | <4.19 | 4.64 | 4.92 | 5.52 | <4.19 | – | – | – | – | – | – | –
8 | Cl.Clc1ccc(Cl)c2c1CNC(c1ccc3c(c1)OCC3)c1cccn1-2 (stereo not shown) [Compound 33, 7,10-dichloro-4-(2,3-dihydro-6-benzofuranyl)-5,6-dihydro-4H-pyrrolo[1,2-a][1,4]-benzodiazepine .HCl] | <4.19 | 5.15 | <4.19 | <4.19 | <4.19 | 5.52 | <4.19 | – | – | – | – | – | – | –
9 | Cl.Clc1cc(Cl)c2c(c1)CNC(c1ccc3c(c1)CCO3)c1cccn1-2 (stereo not shown) [Compound 34, 8,10-dichloro-4-(2,3-dihydro-5-benzofuranyl)-5,6-dihydro-4H-pyrrolo[1,2-a][1,4]-benzodiazepine .HCl] | <4.19 | 5.70 | <4.19 | 5.52 | 4.96 | 5.70 | <4.19 | – | – | – | – | – | – | –
10 | Fc1cccc2c1CN=C(c1ccc3c(c1)CCCO3)c1cccn1-2 [Compound 40, 4-(3,4-dihydro-2H-1-benzopyran-6-yl)-7-fluoro-6H-pyrrolo[1,2-a][1,4]benzo-diazepine] | <4.19 | <4.19 | 5.56 | 5.87 | <4.19 | 4.49 | <4.19 | – | – | – | – | – | – | –
11 | Clc1ccc2c(c1)-n1cccc1C(c1ccc3c(c1)CCOC3)=NC2 [Compound 41, 9-chloro-4-(3,4-dihydro-1H-2-benzopyran-6-yl)-6H-pyrrolo[1,2-a][1,4]benzo-diazepine] | <4.19 | <4.19 | 5.60 | 4.52 | 4.49 | 4.48 | <4.19 | – | – | – | – | – | – | –
12 | Clc1ccc2c(c1)-n1cccc1C(c1ccc3c(c1)CCCO3)=NC2 [Compound 42, 9-chloro-4-(3,4-dihydro-2H-1-benzopyran-6-yl)-6H-pyrrolo[1,2-a][1,4]benzo-diazepine] | 5.10 | <4.19 | 5.63 | 6.82 | <4.19 | 4.49 | <4.19 | – | – | – | – | – | – | –
13 | Clc1ccc2c(c1Cl)CN=C(c1ccc3c(c1)CCO3)c1cccn1-2 [Compound 44, 7,8-dichloro-4-(2,3-dihydro-5-benzofuranyl)-6H-pyrrolo[1,2-a][1,4]benzodiazepine] | – | – | – | – | – | – | – | 5.01 | 5.01 | 12 | 7.08 | 7.94 | 5.01 | > 64.6
14 | Fc1cc(F)c2c(c1)-n1cccc1C(c1ccc3c(c1)CCCO3)=NC2 [Compound 46, 4-(3,4-dihydro-2H-1-benzopyran-6-yl)-7,9-difluoro-6H-pyrrolo[1,2-a][1,4]benzo-diazepine] | 4.49 | 4.44 | 5.79 | 5.49 | <4.19 | 4.48 | 4.49 | – | – | – | – | – | – | –
15 | Clc1ccc(Cl)c2c1CN=C(c1ccc3c(c1)OCC3)c1cccn1-2 [Compound 47, 7,10-dichloro-4-(2,3-dihydro-6-benzofuranyl)-6H-pyrrolo[1,2-a][1,4]benzo-diazepine] | <4.19 | 5.92 | <4.19 | <4.19 | <4.19 | 5.40 | <4.19 | – | – | – | – | – | – | –
16 | Br.CCOc1cc2c(cc1C1NCc3c(Cl)cccc3-n3cccc31)OC(C)C2 (stereo not shown) [Compound 50, 7-chloro-4-(5-ethoxy-2,3-dihydro-2-methyl-6-benzofuranyl)-5,6-dihydro-4H-pyrrolo[1,2-a][1,4]benzodiazepine .HBr] | <4.19 | 5.52 | <4.19 | 4.74 | <4.19 | 4.92 | <4.19 | – | – | – | – | – | – | –
